Source: patent publication EP1561465A2, “Methods of use of fluoroquinolone compounds against bacteria” (LG Life Sciences, Ltd., priority 1999, dated 2001)
In brackets after ≈: the same amount, converted by molar mass. Read-outs that look alike come from different tables or passages of the source.

Tests used:
Format in all cases: cell-based
Salmonella spp. = test: MIC by agar dilution (NCCLS M7-A4), 288 enteropathogenic isolates, eight quinolones; conditions: for MIC: ciprofloxacin MIC ≥[…], read-out: MIC
Shigella spp. = test: as above; conditions: Shigella spp. (n = 21)
Streptococcus pneumoniae [1] = test: MIC by agar dilution (NCCLS), 411 isolates Buenos Aires 1998-99; conditions: for MIC / MIC90: Streptococcus pneumoniae; for MIC90: read-out: MIC90
Haemophilus influenzae [2] = test: as above; conditions: Haemophilus influenzae (n = 65)
Streptococcus pyogenes = test: MIC by NCCLS reference broth microdilution, 450 respiratory tract pathogens; conditions: for MIC / MIC50 / MIC90: Streptococcus pyogenes
Haemophilus influenzae [3] = test: as above; conditions: Haemophilus influenzae; for MIC90: read-out: MIC90
Moraxella catarrhalis = test: as above
Streptococcus pneumoniae [4] = test: MIC by broth microdilution (NCCLS), dried MicroScan panels, clinical isolates 1998-1999; conditions: for MIC90: Streptococcus pneumoniae
[5] = Streptococcus pneumoniae (n = 90)
[6] = Streptococcus pyogenes (n = 100)
[7] = erythromycin resistant C phenotype [MLSB] (n = 20)
[8] = erythromycin resistant I phenotype [MLSB] (n = 20)
[9] = erythromycin resistant M phenotype (n = 20)
[10] = Haemophilus influenzae (n = 100)
[11] = Streptococcus pneumoniae (302 isolates)

SMILES: CO/N=C1\CN(c2nc3c(cc2F)c(=O)c(C(=O)O)cn3C2CC2)CC1CN (racemic) [Gemifloxacin, (R,S)-7-(3-aminomethyl-4-methoxyiminopyrrolidin-1-yl)-1-cyclopropyl-6-fluoro-4-oxo-1,4-dihydro-1,8-naphthyridine-3-carboxylic acid]
- MIC (Salmonella spp.; S. hadar (n = 2)): 0.25 µg/mL (≈ 0.642 µM)
- MIC (Salmonella spp.; S. newport (n = 1)): 0.25 µg/mL (≈ 0.642 µM)
- MIC (Salmonella spp.; S. virchow (n = 2)): 0.12 µg/mL (≈ 0.308 µM)
- % Susceptible (Salmonella spp.; Salmonella spp. (n = 106)): 100%
- MIC50 (Salmonella spp.; Salmonella spp. (n = 106)): 0.03 µg/mL (≈ 0.077 µM)
- MIC90 (Salmonella spp.; Salmonella spp. (n = 106)): 0.12 µg/mL (≈ 0.308 µM)
- MIC Range (Salmonella spp.; Salmonella spp. (n = 106)): ≤0.015 to 0.25 µg/mL
- MIC (Salmonella spp.; Salmonella, S. tshiongwe (n = 1)): 0.25 µg/mL (≈ 0.642 µM)
- MICs lower than those of the other fluoroquinolones studied (Salmonella spp.; six Salmonella spp. with ciprofloxacin MICs ≥[…]): 1-4 dilutions
- % Susceptible (Shigella spp.): 100%
- MIC50 (Shigella spp.): ≤ 0.015 µg/mL
- MIC90 (Shigella spp.): ≤ 0.015 µg/mL
- MIC Range (Shigella spp.): ≤0.015 µg/mL
- MIC (Streptococcus pneumoniae [1]): 0.125 µg/mL (≈ 0.321 µM)
- MIC Range (Streptococcus pneumoniae [1]; [5]): ≤0.004 to 0.125 µg/mL
- MIC (Streptococcus pneumoniae [1]; Ciprofloxacin-resistant S. pneumoniae, Strain 1, read-out: MIC): 0.03 µg/mL (≈ 0.077 µM)
- MIC (Streptococcus pneumoniae [1]; Ciprofloxacin-resistant S. pneumoniae, Strain 2, read-out: MIC): 0.06 µg/mL (≈ 0.154 µM)
- MIC (Streptococcus pneumoniae [1]; Ciprofloxacin-resistant S. pneumoniae, Strain 4, read-out: MIC): 0.06 µg/mL (≈ 0.154 µM)
- MIC90 (Streptococcus pneumoniae [1]; S. pneumoniae, Penicillin intermediate (n = 17)): 0.03 µg/mL (≈ 0.077 µM)
- MIC90 (Streptococcus pneumoniae [1]; S. pneumoniae, Penicillin resistant (n = 4)): 0.03 µg/mL (≈ 0.077 µM)
- MIC90 (Streptococcus pneumoniae [1]; S. pneumoniae, Penicillin susceptible (n = 69)): 0.03 µg/mL (≈ 0.077 µM)
- MIC90 (Streptococcus pneumoniae [1]; [5]): 0.03 µg/mL (≈ 0.077 µM)
- MIC90 (Haemophilus influenzae [2]): 0.008 µg/mL (≈ 0.0205 µM)
- MIC Range (Haemophilus influenzae [2]): ≤0.004 to 0.125 µg/mL
- activity higher than that of the other fluoroquinolones tested (Streptococcus pyogenes; S. pyogenes): 2-32 fold
- MIC (Streptococcus pyogenes; [6]): 0.00375 to 0.06 µg/mL (≈ 0.00963 to 0.154 µM)
- MIC50 (Streptococcus pyogenes; [6]): 0.015 µg/mL (≈ 0.0385 µM)
- MIC90 (Streptococcus pyogenes; [6]): 0.03 µg/mL (≈ 0.077 µM)
- MIC (Streptococcus pyogenes; [7]): 0.00375 to 0.03 µg/mL (≈ 0.00963 to 0.077 µM)
- MIC50 (Streptococcus pyogenes; [7]): 0.015 µg/mL (≈ 0.0385 µM)
- MIC90 (Streptococcus pyogenes; [7]): 0.015 µg/mL (≈ 0.0385 µM)
- MIC (Streptococcus pyogenes; [8]): 0.00375 to 0.06 µg/mL (≈ 0.00963 to 0.154 µM)
- MIC50 (Streptococcus pyogenes; [8]): 0.015 µg/mL (≈ 0.0385 µM)
- MIC90 (Streptococcus pyogenes; [8]): 0.03 µg/mL (≈ 0.077 µM)
- MIC (Streptococcus pyogenes; [9]): 0.00375 to 0.03 µg/mL (≈ 0.00963 to 0.077 µM)
- MIC50 (Streptococcus pyogenes; [9]): 0.015 µg/mL (≈ 0.0385 µM)
- MIC90 (Streptococcus pyogenes; [9]): 0.015 µg/mL (≈ 0.0385 µM)
- MIC (Streptococcus pyogenes; fully susceptible (n = 20)): 0.0075 to 0.03 µg/mL (≈ 0.0193 to 0.077 µM)
- MIC50 (Streptococcus pyogenes; fully susceptible (n = 20)): 0.015 µg/mL (≈ 0.0385 µM)
- MIC90 (Streptococcus pyogenes; fully susceptible (n = 20)): 0.03 µg/mL (≈ 0.077 µM)
- MIC (Streptococcus pyogenes; multi-drug resistant (n = 20)): 0.0075 to 0.015 µg/mL (≈ 0.0193 to 0.0385 µM)
- MIC50 (Streptococcus pyogenes; multi-drug resistant (n = 20)): 0.015 µg/mL (≈ 0.0385 µM)
- MIC90 (Streptococcus pyogenes; multi-drug resistant (n = 20)): 0.03 µg/mL (≈ 0.077 µM)
- MIC (Haemophilus influenzae [3]; [10]): 0.0075 to 0.06 µg/mL (≈ 0.0193 to 0.154 µM)
- MIC50 (Haemophilus influenzae [3]; [10]): ≤ 0.0075 µg/mL
- MIC90 (Haemophilus influenzae [3]; [10]): ≤ 0.00075 µg/mL
- MIC (Haemophilus influenzae [3]; β-lactamase negative (n = 80)): 0.0075 to 0.015 µg/mL (≈ 0.0193 to 0.0385 µM)
- MIC50 (Haemophilus influenzae [3]; β-lactamase negative (n = 80)): ≤ 0.0075 µg/mL
- MIC90 (Haemophilus influenzae [3]; β-lactamase negative (n = 80)): ≤ 0.0075 µg/mL
- MIC (Haemophilus influenzae [3]; β-lactamase positive (n = 20)): 0.0075 to 0.06 µg/mL (≈ 0.0193 to 0.154 µM)
- MIC50 (Haemophilus influenzae [3]; β-lactamase positive (n = 20)): ≤ 0.0075 µg/mL
- MIC90 (Haemophilus influenzae [3]; β-lactamase positive (n = 20)): 0.015 µg/mL (≈ 0.0385 µM)
- MIC (Moraxella catarrhalis; Moraxella catarrhalis (n = 50)): 0.00375 to 0.03 µg/mL (≈ 0.00963 to 0.077 µM)
- MIC50 (Moraxella catarrhalis; Moraxella catarrhalis (n = 50)): 0.015 µg/mL (≈ 0.0385 µM)
- MIC90 (Moraxella catarrhalis; Moraxella catarrhalis (n = 50)): 0.015 µg/mL (≈ 0.0385 µM)
- MIC (Moraxella catarrhalis; β-lactamase negative (n = 13)): 0.00375 to 0.015 µg/mL (≈ 0.00963 to 0.0385 µM)
- MIC50 (Moraxella catarrhalis; β-lactamase negative (n = 13)): 0.015 µg/mL (≈ 0.0385 µM)
- MIC90 (Moraxella catarrhalis; β-lactamase negative (n = 13)): 0.015 µg/mL (≈ 0.0385 µM)
- MIC (Moraxella catarrhalis; β-lactamase positive (n = 37)): 0.00375 to 0.03 µg/mL (≈ 0.00963 to 0.077 µM)
- MIC50 (Moraxella catarrhalis; β-lactamase positive (n = 37)): 0.015 µg/mL (≈ 0.0385 µM)
- MIC90 (Moraxella catarrhalis; β-lactamase positive (n = 37)): 0.015 µg/mL (≈ 0.0385 µM)
- more active than grepafloxacin (Streptococcus pneumoniae [4]; S. pneumoniae): two-fold
- more active than levofloxacin (Streptococcus pneumoniae [4]; S. pneumoniae): 16 fold
- more active than trovafloxacin (Streptococcus pneumoniae [4]; S. pneumoniae): four-fold
- MIC50 (Streptococcus pneumoniae [4]; [11]): 0.03 µg/mL (≈ 0.077 µM)
- MIC Range (Streptococcus pneumoniae [4]; [11]): ≤0.0015 to 0.12 µg/mL
- MIC90 (Streptococcus pneumoniae [4]; Erythromycin-resistant (86)): 0.03 µg/mL (≈ 0.077 µM)
- MIC90 (Streptococcus pneumoniae [4]; Erythromycin-sensitive (216)): 0.06 µg/mL (≈ 0.154 µM)
